In the NIST ThermoML archive (doi:10.1016/j.jct.2012.06.031):

Test: xn = mol fraction of the nth substance listed
Settings: 101 kPa, Liquid; for viscosity: Concentric cylinders viscometry; for mass density: Vibrating tube method

c1ccncc1 [pyridine] + OCC(O)CO
Settings	mass density [kg/m3]	viscosity [mPa·s]
288.15 K, x1 = 0.1	1237.23	1518
288.15 K, x1 = 0.2001	1209.17	853.01
288.15 K, x1 = 0.3001	1182.56	438.65
288.15 K, x1 = 0.4	1156.91	202.46
288.15 K, x1 = 0.4998	1130.25	86.64
288.15 K, x1 = 0.6001	1103.35	29.67
288.15 K, x1 = 0.6999	1075.51	7.871
288.15 K, x1 = 0.8001	1047.04	4.241
288.15 K, x1 = 0.8999	1018	1.944
288.15 K, x1 = 1	988.061	1.03
293.15 K, x1 = 0.1	1233.99	946.3
293.15 K, x1 = 0.2001	1205.75	539.76
293.15 K, x1 = 0.3001	1178.91	283.85
293.15 K, x1 = 0.4	1153.16	135.63
293.15 K, x1 = 0.4998	1126.26	60.5
293.15 K, x1 = 0.6001	1099.12	22.37
293.15 K, x1 = 0.6999	1071.23	6.966
293.15 K, x1 = 0.8001	1042.41	3.639
293.15 K, x1 = 0.8999	1013.18	1.748
293.15 K, x1 = 1	983.038	0.9588
298.15 K, x1 = 0.1	1230.73	608.94
298.15 K, x1 = 0.2001	1202.25	352.75
298.15 K, x1 = 0.3001	1175.23	189.75
298.15 K, x1 = 0.4	1149.36	93.82
298.15 K, x1 = 0.4998	1122.23	43.51
298.15 K, x1 = 0.6001	1094.86	17.25
298.15 K, x1 = 0.6999	1066.63	6.111
298.15 K, x1 = 0.8001	1037.6	3.155
298.15 K, x1 = 0.8999	1008.34	–
298.15 K, x1 = 1	978.006	0.8943
303.15 K, x1 = 0.1	1227.44	403.56
303.15 K, x1 = 0.2001	1198.74	237.3
303.15 K, x1 = 0.3001	1171.52	130.53
303.15 K, x1 = 0.4	1145.49	66.75
303.15 K, x1 = 0.4998	1118.17	32.21
303.15 K, x1 = 0.6001	1090.58	13.57
303.15 K, x1 = 0.6999	1062.16	5.257
303.15 K, x1 = 0.8001	1033.11	2.765
303.15 K, x1 = 0.8999	1003.49	1.439
303.15 K, x1 = 1	972.967	0.8355
308.15 K, x1 = 0.1	1224.12	275.49
308.15 K, x1 = 0.2001	1195.32	164.23
308.15 K, x1 = 0.3001	1167.95	92.29
308.15 K, x1 = 0.4	1141.6	48.72
308.15 K, x1 = 0.4998	1114.07	24.45
308.15 K, x1 = 0.6001	1086.27	10.87
308.15 K, x1 = 0.6999	1057.66	4.532
308.15 K, x1 = 0.8001	1028.43	2.441
308.15 K, x1 = 0.8999	998.628	1.316
308.15 K, x1 = 1	967.913	0.7837
313.15 K, x1 = 0.1	1220.77	192.54
313.15 K, x1 = 0.2001	1191.92	116.47
313.15 K, x1 = 0.3001	1164.44	66.86
313.15 K, x1 = 0.4	1137.67	36.35
313.15 K, x1 = 0.4998	1109.95	18.9
313.15 K, x1 = 0.6001	1081.93	8.841
313.15 K, x1 = 0.6999	1053.14	3.95
313.15 K, x1 = 0.8001	1023.73	2.172
313.15 K, x1 = 0.8999	993.746	1.209
313.15 K, x1 = 1	962.849	0.7354
318.15 K, x1 = 0.1	1217.48	137.7
318.15 K, x1 = 0.2001	1188.63	84.41
318.15 K, x1 = 0.3001	1160.93	49.31
318.15 K, x1 = 0.4	1133.7	27.66
318.15 K, x1 = 0.4998	1105.79	14.88
318.15 K, x1 = 0.6001	1077.57	7.298
318.15 K, x1 = 0.6999	1048.59	3.463
318.15 K, x1 = 0.8001	1019	1.944
318.15 K, x1 = 0.8999	988.846	1.114
318.15 K, x1 = 1	957.769	0.6912
323.15 K, x1 = 0.1	1214.26	101.38
323.15 K, x1 = 0.2001	1185.34	63.12
323.15 K, x1 = 0.3001	1157.38	38.06
323.15 K, x1 = 0.4	1129.71	21.58
323.15 K, x1 = 0.4998	1101.59	12.04
323.15 K, x1 = 0.6001	1073.01	6.153
323.15 K, x1 = 0.6999	1044.02	3.06
323.15 K, x1 = 0.8001	1014.26	1.769
323.15 K, x1 = 0.8999	983.927	1.038
323.15 K, x1 = 1	952.673	0.6507
